For assay [1], the target named is T1, 5-HT1D receptor (Homo sapiens, UniProt P28221).
T1 construct: expressed in transfected cells
In words: Binding affinity, 3H-serotonin displacement from membranes of cells expressing 5-HT1D. Conditions: 100 nM of test compound; 3H-serotonin 1 nM; 60 minute incubation at 22° C.; read-out: percent inhibition of binding of the radioligand at the 5-HT1D receptor. The procedure:
(§1) Selected compounds of the previous examples, as well as reference compounds were evaluated for binding affinity using cell types receptive specifically to 5-HT1D and 5-HT1B ligands. The assay protocol generally entailed the incubation of membranes prepared from cells expressing the 5-HT1D or 5-HT1B subtype of 5-HT receptors with ^3H-serotonin (1 nM for 5-HT1D and 2.5 nM for 5-HT1B). Specific concentrations of the test compound were incubated with the radioligand and the membrane homogenates prepared from the recombinant cells. After a 60 minute incubation at 22° C., the incubation was terminated by vacuum filtration. The filters were washed with buffer and counted for radioactivity using liquid scintillation spectroscopy. The affinity of the test compound for the 5-HT1D receptor is expressed as the amount (in percent) of binding of the radioligand that is inhibited in the presence of 100 nM of test compound. A greater percent inhibition indicates greater affinity for the 5-HT1D receptor.

A further assay addresses T2, 5-HT1B receptor (Homo sapiens, UniProt P28222).
T2 construct: expressed in transfected cells
In words: Binding affinity, 3H-serotonin displacement from membranes of cells expressing 5-HT1B. Conditions: 3H-serotonin 2.5 nM; 60 minute incubation at 22° C.; 100 nM test compound given only for 5-HT1D; read-out: percent inhibition at the 5-HT1B receptor. How it is done: as §1

Assay [2] has as its target T1, 5-HT1D receptor. In words: Functional assay, inhibition of forskolin-stimulated adenyl cyclase (cAMP) in CHO Pro 5 cells. The note with it: CHO cells stably expressing the 5-HT1D receptor; concentrations of 100 nM and 10 μM. It is filed as cell-based. The procedure: The 5HT1D and 5HT1B receptor subtypes respond to serotonin and other agonists by reducing adenyl cyclase mediated production of cyclic AMP. Particular test compounds were assayed for their ability to inhibit adenyl cyclase activity using the procedure described below. Forskolin was used to elevate the basal adenyl cyclase activity.
Compounds acting as antagonists at the 5HT1D and 5HT1B receptor subtypes will antagonize the agonist effect of serotonin and thus, will block the serotonin-induced inhibition of forskolin-stimulated adenyl cyclase activity. […]
The culture media of each well was removed, and the wells were washed once with serum free media. […] Basal adenyl cyclase activity was determined from wells with only SFM+IBMX media added.
The cells were then incubated at 37° C. for 30 minutes in a CO2 incubator. […] The pellets were discarded and the supernatants were stored at 4° C. until assayed for cAMP concentration. cAMP content for each extract was determined in duplicate by EIA (enzyme-immunoassay) using the Amersham Biotrak cAMP EIA kit (Amersham RPN 225).
Total inhibition (Io) of forskolin-stimulated adenyl cyclase activity by serotonin was determined as the difference in concentration of cAMP in the forskolin-treated cells (Cf) and serotonin-forskolin treated cells (Cd). […]

T2 sequence (P28222 whole entry): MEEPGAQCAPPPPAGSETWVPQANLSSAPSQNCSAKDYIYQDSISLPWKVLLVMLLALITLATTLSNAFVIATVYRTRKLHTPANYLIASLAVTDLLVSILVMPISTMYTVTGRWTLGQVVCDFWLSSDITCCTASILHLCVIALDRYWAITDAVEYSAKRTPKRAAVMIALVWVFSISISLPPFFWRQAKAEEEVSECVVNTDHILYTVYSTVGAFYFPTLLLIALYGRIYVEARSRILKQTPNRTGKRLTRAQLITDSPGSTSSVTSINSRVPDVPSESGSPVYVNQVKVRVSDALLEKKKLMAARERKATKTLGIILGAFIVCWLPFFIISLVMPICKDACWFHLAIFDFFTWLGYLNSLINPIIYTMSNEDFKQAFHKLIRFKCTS
T1 sequence (P28221 whole entry): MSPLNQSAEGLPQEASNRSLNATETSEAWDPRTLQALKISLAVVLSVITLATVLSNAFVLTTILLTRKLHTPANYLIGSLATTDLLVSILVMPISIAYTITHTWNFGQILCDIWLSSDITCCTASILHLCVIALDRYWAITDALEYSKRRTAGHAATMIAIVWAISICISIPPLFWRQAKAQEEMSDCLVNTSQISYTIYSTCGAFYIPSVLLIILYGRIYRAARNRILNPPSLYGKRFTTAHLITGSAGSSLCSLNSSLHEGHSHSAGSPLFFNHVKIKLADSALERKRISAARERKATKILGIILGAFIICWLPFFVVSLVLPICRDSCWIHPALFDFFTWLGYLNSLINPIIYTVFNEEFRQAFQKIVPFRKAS

For `C1=C(c2ccc3[nH]cc(C4=CC5CCCN5CC4)c3c2)CCSC1` [Example 8f, 5-(5,6-Dihydro-2H-thiopyran-4-yl)-3-[(8a-R,S)-1,2,3,5,6,8a-hexahydro-7-indolizinyl]-1H-indole], the inhibition (usually the share of the control response that was lost under treatment) at 0.1 µM at 5-HT1D receptor [1] was more than 75%.
Turning to `C1=C(c2ccc3[nH]cc(C4=CCN5CCCC5C4)c3c2)CCSC1` [Example 8e, 5-(5,6-Dihydro-2H-thiopyran-4-yl)-3-[(8a-R,S)-1,2,3,5,8,8a-hexahydro-7-indolizinyl]-1H-indole], the values for the inhibition at 0.1 µM on 5-HT1D receptor [1] and on 5-HT1B receptor were more than 75% and less than 50%, respectively.
The matching figures for `CC1=C(c2c[nH]c3ccc(C(C)C)cc23)CC2CCCN2C1` [Example 6, 5-Isopropyl-3-[(8a,R,S)-6-methyl-1,2,3,5,8,8a-hexahydro-7-indolizinyl]-1H-indole]: more than 75% and less than 50%.
As to `COc1ccc2[nH]cc(C3=CCN4CCCC4C3)c2c1` [Example 3b, 5-Methoxy-3-[(8a-R,S)-1,2,3,5,8,8a-hexahydro-7-indolizinyl]-1H-indole], the inhibition at 0.1 µM at 5-HT1D receptor [1] was more than 75%; on 5-HT1B receptor it was less than 50%.
The matching figures for `Cc1ccc2[nH]cc(C3=CCN4CCCC4C3)c2c1` [Example 3c, 5-Methyl-3-[(8a-R,S)-1,2,3,5,8,8a-hexahydro-7-indolizinyl]-1H-indole]: more than 75% and less than 50%.
On the same counts, the results for `C1=C(c2ccc3[nH]cc(C4=CCN5CCCC5C4)c3c2)CCCC1` [Example 8c, 5-(Cyclohexen-1-yl)-3-[(8a-R,S)-1,2,3,5,8,8a-hexahydro-7-indolizinyl]-1H-indole] are more than 75% and less than 50%.
Consider `Brc1ccc2[nH]cc(C3=CCN4CCCC4C3)c2c1` [Example 3e, 5-Bromo-3-[(8a-R,S)-1,2,3,5,8,8a-hexahydro-7-indolizinyl]-1H-indole], for which the inhibition at 0.1 µM at 5-HT1D receptor [1] was more than 75%.
Same read-out and setting: next, `c1cc2[nH]cc(C3CCN4CCCC4C3)c2cc1C1CCOCC1` [Example 9g, 5-(Tetrahydropyran-4-yl)-[(7-R,S)(8a-R,S)-octahydro-7-indolizinyl]-1H-indole]: more than 75%.
Same read-out and setting: to `C1=C(c2ccc3[nH]cc(C4=CC5CCCN5CC4)c3c2)CCOC1` [Example 8b, 5-(5,6-Dihydro-2H-pyran-4-yl)-3-[(8a-R,S)-1,2,3,5,6,8a-hexahydro-7-indolizinyl]-1H-indole] belongs more than 75%; to `C1=C(c2ccc3[nH]cc(C4=CCN5CCCC5C4)c3c2)CCOC1` [Example 8a, 5-(5,6-Dihydro-2H-pyran-4-yl)-3-[(8a-R,S)-1,2,3,5,8,8a-hexahydro-7-indolizinyl]-1H-indole], more than 75%; to `C1=C(c2ccc3[nH]cc(C4=CC5CCCN5CC4)c3c2)CCCC1` [Example 8d, 5-(Cyclohexen-1-yl)-3-[(8a-R,S)-1,2,3,5,6,8a-hexahydro-7-indolizinyl]-1H-indole], more than 75%.
`CC(C)c1ccc2[nH]cc(C3=CCN4CCCC4C3)c2c1` [Example 3d, 5-Isopropyl-3-[(8a-R,S)-1,2,3,5,8,8a-hexahydro-7-indolizinyl]-1H-indole]: the inhibition at 0.1 µM is more than 75% on 5-HT1D receptor [1] and less than 50% on 5-HT1B receptor. Further, the “forskolin stimulated production of cAMP (agonist activity)” value at 5-HT1D receptor [2] is given as “decrease”.
On to `c1csc(-c2ccc3[nH]cc(C4CCN5CCCC5C4)c3c2)c1` [Example 14c, 3-[(7-R,S)(8a-R,S)-Octahydro-7-indolizinyl]-5-(2-thienyl)-1H-indole], for which the inhibition at 0.1 µM was more than 75% at 5-HT1D receptor [1] and less than 50% at 5-HT1B receptor. Further, the “forskolin stimulated production of cAMP (agonist activity)” value at 5-HT1D receptor [2] was “decrease”.
As to `C1=C(c2c[nH]c3ccc(-c4cccs4)cc23)CC2CCCN2C1` [Example 3g, 5-(2-Thienyl)-3-[(8a-R,S)-1,2,3,5,8,8a-hexahydro-7-indolizinyl]-1H-indole], the inhibition at 0.1 µM at 5-HT1D receptor [1] is more than 75%.
Take `CC(C)c1ccc2[nH]cc(C3CCN4CCCC4C3)c2c1` (single isomer, unassigned) [Example 9c, 5-Isopropyl-3-[(7R or 7S)(8a-R,S)-octahydro-7-indolizinyl]-1H-indole]: the inhibition at 0.1 µM on 5-HT1D receptor [1] was more than 75%; at 5-HT1B receptor, less than 50%.
On the same counts, the results for `OC1(c2ccc3[nH]cc(C4=CCN5CCCC5C4)c3c2)CCCCC1` [Example 3h, 1-{[3-(8a-R,S)-1,2,3,5,8,8a-Hexahydro-7-indolizinyl]-1H-indol-5-yl}cyclohexanol] are more than 75% and less than 50%.
On the same counts, the results for `OC1(c2ccc3[nH]cc(C4=CCN5CCCC5C4)c3c2)CCOCC1` [Example 7, 4-{[3-(8a-R,S)-1,2,3,5,8,8a-Hexahydro-7-indolizinyl]-1H-indol-5-yl}tetrahydro-2H-pyran-4-ol] are more than 75% and less than 50%.
On to `C1=C(c2c[nH]c3ccc(OC4CCCCC4)cc23)CC2CCCN2C1` [Example 3f, 5-Cyclohexyloxy-3-[(8a-R,S)-1,2,3,5,8,8a-hexahydro-7-indolizinyl]-1H-indole], for which the inhibition at 0.1 µM on 5-HT1D receptor [1] was more than 75%.

The record behind these values is US6562809B1, “3-bicycloindole compounds” (NPS Allelix Corp., priority 1998, dated 2003).
